From ChEMBL document CHEMBL1139660, “Imidazo[1,2-b][1,2,4]triazines as alpha2/alpha3 subtype selective GABA A agonists for the treatment of anxiety” (Bioorg Med Chem Lett, 2006)

What was measured:
[1] = target: T1, GABA-A receptor; alpha-1/beta-3/gamma-2 (Homo sapiens) (UniProt P14867+P18507+P28472); assay: Efficacy against recombinant human GABA-Aalpha1 receptor plus beta-3-gamma-2 expressed in L(tk-) cells by modulation of chloride ion flux relative to chlordiazepoxide; type: cell-based
[2] = target: T2, GABA-A receptor; alpha-3/beta-3/gamma-2 (Homo sapiens, UniProt P18507+P28472+P34903); assay: Displacement of [3H]Ro 15-1788 from recombinant human GABA-Aalpha3 receptor plus beta-3-gamma-2 expressed in L(tk-) cells; type: cell-based
T2 sequence (P18507 whole entry): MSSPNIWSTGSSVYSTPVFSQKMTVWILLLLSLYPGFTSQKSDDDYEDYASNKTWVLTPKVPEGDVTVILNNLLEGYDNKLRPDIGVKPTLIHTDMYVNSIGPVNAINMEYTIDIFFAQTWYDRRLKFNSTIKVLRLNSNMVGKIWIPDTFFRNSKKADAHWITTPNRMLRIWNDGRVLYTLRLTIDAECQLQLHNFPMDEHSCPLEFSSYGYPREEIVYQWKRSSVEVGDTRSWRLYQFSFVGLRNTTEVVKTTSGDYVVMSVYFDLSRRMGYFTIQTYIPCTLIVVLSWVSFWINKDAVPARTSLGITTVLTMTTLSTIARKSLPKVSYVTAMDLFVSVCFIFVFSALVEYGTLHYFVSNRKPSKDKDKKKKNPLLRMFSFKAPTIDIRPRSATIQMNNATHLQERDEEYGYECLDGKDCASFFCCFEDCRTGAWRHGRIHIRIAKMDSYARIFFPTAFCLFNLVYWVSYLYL
T2 sequence (P28472 whole entry): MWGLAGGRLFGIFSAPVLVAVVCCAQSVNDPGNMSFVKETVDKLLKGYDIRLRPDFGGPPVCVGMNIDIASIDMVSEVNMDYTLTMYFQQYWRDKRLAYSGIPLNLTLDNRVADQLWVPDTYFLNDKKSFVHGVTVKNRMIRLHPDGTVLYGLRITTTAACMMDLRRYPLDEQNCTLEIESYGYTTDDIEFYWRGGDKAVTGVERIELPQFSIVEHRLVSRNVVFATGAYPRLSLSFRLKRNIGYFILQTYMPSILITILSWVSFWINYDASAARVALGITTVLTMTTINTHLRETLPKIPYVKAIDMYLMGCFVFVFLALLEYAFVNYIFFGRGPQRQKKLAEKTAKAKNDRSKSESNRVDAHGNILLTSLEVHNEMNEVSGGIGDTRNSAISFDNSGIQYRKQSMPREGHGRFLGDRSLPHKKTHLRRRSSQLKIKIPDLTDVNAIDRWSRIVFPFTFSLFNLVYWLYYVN
T2 sequence (P34903 whole entry): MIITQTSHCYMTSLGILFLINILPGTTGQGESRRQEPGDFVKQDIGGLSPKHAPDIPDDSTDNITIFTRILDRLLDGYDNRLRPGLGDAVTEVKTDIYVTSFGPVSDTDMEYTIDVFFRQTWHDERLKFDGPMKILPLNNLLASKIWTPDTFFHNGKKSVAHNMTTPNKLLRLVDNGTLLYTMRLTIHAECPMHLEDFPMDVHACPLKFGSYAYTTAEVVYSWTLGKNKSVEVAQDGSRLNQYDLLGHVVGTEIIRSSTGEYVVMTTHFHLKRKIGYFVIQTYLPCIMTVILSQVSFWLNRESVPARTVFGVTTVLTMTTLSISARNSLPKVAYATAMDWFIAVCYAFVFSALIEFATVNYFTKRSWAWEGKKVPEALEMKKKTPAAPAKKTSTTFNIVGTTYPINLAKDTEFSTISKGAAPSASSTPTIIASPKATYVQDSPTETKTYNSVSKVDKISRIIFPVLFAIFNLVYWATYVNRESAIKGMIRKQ

[3] = target: T3, GABA-A receptor; alpha-3/beta-3/gamma-2 (Homo sapiens) (UniProt P18507+P28472+P34903); assay: Efficacy against recombinant human GABA-Aalpha3 receptor plus beta-3-gamma-2 expressed in L(tk-) cells by modulation of chloride ion flux relative to chlordiazepoxide; type: functional, cell-based
[4] = target: T4, GABA-A receptor; alpha-5/beta-3/gamma-2 (Homo sapiens, UniProt P18507+P28472+P31644); assay: Displacement of [3H]Ro 15-1788 from recombinant human GABA-Aalpha5 receptor plus beta-3-gamma-2 expressed in L(tk-) cells; type: cell-based
T4 sequence (P18507 whole entry): T2 sequence (P18507 whole entry)
T4 sequence (P28472 whole entry): T2 sequence (P28472 whole entry)
T4 sequence (P31644 whole entry): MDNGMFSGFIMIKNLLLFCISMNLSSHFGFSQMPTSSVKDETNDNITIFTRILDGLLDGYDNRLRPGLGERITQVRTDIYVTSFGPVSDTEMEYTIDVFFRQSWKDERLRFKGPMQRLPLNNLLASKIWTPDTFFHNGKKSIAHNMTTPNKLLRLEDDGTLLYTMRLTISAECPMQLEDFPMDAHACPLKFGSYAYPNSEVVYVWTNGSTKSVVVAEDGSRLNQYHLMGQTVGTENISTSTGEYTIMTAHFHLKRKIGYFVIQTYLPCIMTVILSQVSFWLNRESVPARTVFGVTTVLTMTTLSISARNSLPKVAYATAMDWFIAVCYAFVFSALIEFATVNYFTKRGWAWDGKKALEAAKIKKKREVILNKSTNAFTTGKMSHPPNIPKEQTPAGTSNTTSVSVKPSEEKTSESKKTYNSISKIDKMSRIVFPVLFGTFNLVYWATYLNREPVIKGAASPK

[5] = target: T5, GABA-A receptor; alpha-1/beta-3/gamma-2 (Homo sapiens, UniProt P14867+P18507+P28472); assay: Displacement of [3H]Ro 15-1788 from recombinant human GABA-Aalpha1 receptor plus beta3gamma2 expressed in mouse L(tk-) cells; type: cell-based
T5 sequence (P14867 whole entry): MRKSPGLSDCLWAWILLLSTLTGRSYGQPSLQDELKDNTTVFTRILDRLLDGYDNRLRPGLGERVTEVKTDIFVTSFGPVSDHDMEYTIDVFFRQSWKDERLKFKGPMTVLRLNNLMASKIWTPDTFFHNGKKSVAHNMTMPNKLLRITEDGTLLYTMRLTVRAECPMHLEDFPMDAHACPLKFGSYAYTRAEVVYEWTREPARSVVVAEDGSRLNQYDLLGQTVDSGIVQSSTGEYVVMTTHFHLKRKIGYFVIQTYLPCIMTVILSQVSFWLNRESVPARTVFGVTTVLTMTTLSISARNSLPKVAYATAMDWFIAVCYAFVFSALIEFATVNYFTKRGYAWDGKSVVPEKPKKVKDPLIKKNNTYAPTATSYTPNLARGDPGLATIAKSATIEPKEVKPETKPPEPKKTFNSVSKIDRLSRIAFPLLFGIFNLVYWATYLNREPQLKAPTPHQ
T5 sequence (P18507 whole entry): T2 sequence (P18507 whole entry)
T5 sequence (P28472 whole entry): T2 sequence (P28472 whole entry)

[6] = target: T1, GABA-A receptor; alpha-1/beta-3/gamma-2 (Homo sapiens); assay: Efficacy against recombinant human GABA-Aalpha1 receptor plus beta-3-gamma-2 expressed in L(tk-) cells by whole cell patch clamp method; type: functional, cell-based
[7] = target: T6, GABA-A receptor; alpha-2/beta-3/gamma-2 (Homo sapiens, UniProt P18507+P28472+P47869); assay: Displacement of [3H]Ro 15-1788 from recombinant human GABA-Aalpha2 receptor plus beta-3-gamma-2 expressed in mouse L(tk-) cells; type: cell-based
T6 sequence (P18507 whole entry): T2 sequence (P18507 whole entry)
T6 sequence (P28472 whole entry): T2 sequence (P28472 whole entry)
T6 sequence (P47869 whole entry): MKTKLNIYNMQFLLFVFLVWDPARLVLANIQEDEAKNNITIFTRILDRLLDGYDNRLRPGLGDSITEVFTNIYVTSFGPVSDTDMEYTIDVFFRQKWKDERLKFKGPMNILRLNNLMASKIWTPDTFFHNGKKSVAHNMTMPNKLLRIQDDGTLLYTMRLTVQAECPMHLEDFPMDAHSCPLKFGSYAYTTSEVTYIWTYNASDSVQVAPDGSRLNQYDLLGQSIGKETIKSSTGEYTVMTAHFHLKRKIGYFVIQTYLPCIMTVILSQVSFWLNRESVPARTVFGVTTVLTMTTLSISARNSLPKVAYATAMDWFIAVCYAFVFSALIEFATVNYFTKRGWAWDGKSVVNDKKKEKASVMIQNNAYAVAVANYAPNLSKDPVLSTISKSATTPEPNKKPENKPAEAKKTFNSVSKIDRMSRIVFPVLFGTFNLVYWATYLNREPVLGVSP

[8] = target: T3, GABA-A receptor; alpha-3/beta-3/gamma-2 (Homo sapiens); assay: Efficacy against recombinant human GABA-Aalpha3 receptor plus beta-3-gamma-2 expressed in L(tk-) cells by whole cell patch clamp method relative to chlordiazepoxide; type: functional, cell-based
[9] = target: GABA-A receptor; alpha-2/beta-3/gamma-2 (Homo sapiens) (UniProt P18507+P28472+P47869); assay: Efficacy against recombinant human GABA-Aalpha2 receptor plus beta-3-gamma-2 expressed in L(tk-) cells by whole cell patch clamp method relative to chlordiazepoxide; type: functional, cell-based
[10] = target: GABA-A receptor; alpha-5/beta-3/gamma-2 (Homo sapiens) (UniProt P18507+P28472+P31644); assay: Efficacy against recombinant human GABA-Aalpha5 receptor plus beta3gamma2 expressed in L(tk-) cells by whole cell patch clamp method relative to chlordiazepoxide; type: functional, cell-based
[11] = Oral bioavailability in Beagle dog at 1 mg/kg, iv or 1 mg/kg, po; type: ADME, organism-based, Canis lupus familiaris; details: in vivo
Rattus norvegicus = assay: Plasma clearance in Sprague-Dawley rat at 1 mg/kg, iv or 1 mg/kg, po; type: organism-based
[12] = Volume of distribution in Beagle dog at 1 mg/kg, iv or 1 mg/kg, po; type: ADME, organism-based, Canis lupus familiaris; details: in vivo, read-out: Vdss
[13] = Volume of distribution in Sprague-Dawley rat at 1 mg/kg, iv or 1 mg/kg, po; type: ADME, organism-based; details: in vivo, read-out: Vdss
[14] = Plasma clearance in Beagle dog at 1 mg/kg, iv or 1 mg/kg, po; type: ADME, organism-based, Canis lupus familiaris
[15] = Half life in Beagle dog at 1 mg/kg, iv or 1 mg/kg, po; type: ADME, organism-based, Canis lupus familiaris; details: in vivo

Row | SMILES | Efficacy [1] | Ki [2] | Efficacy [3] | Ki [4] | Ki [5] | Efficacy [6] | Ki [7] | Efficacy [8] | Efficacy [9] | Efficacy [10] | bioavailability [11] | CL (mL.min-1.kg-1) (Rattus norvegicus) | Vd [12] | Vd [13] | clearance [14] | half-life [15]
1 | CC(C)(O)c1ccn2c(-c3ccc(F)c(-c4ncccc4F)c3)cnc2n1 | 0.44 | 0.42 nM | 0.68 | 1.24 nM | 0.8 nM |  |  |  |  |  |  |  |  |  |  | 
2 | CC(C)(O)c1cnn2c(-c3ccc(F)c(-c4ccc(F)cn4)c3)cnc2n1 |  | 2.77 nM |  | 1.24 nM | 1.45 nM | 0.15 | 2.3 nM | 0.5 |  |  |  |  |  |  |  | 
3 | CC(C)(O)c1ccn2c(-c3ccc(F)c(-c4ccncc4)c3)cnc2n1 | 0.18 | 2.25 nM | 0.47 | 0.31 nM | 0.68 nM | 0.42 |  |  |  |  |  |  |  |  |  | 
4 | CC(C)(O)c1cnn2c(-c3ccc(F)c(-c4ccncc4)c3)cnc2n1 |  | 0.52 nM |  | 0.5 nM | 0.55 nM | 0.06 | 0.92 nM |  |  |  |  |  |  |  |  | 
5 | CC(C)(O)c1cnn2c(-c3ccc(F)c(-c4ccncc4C#N)c3)cnc2n1 |  | 1.06 nM |  | 0.32 nM | 0.76 nM | 0 | 1.54 nM | 0.37 | 0.23 | 0.41 |  |  |  |  |  | 
6 | CC(C)(O)c1cnn2c(-c3ccc(F)c(-c4ncccc4F)c3)cnc2n1 |  | 3.42 nM |  | 1.57 nM | 2.01 nM | 0.24 |  | 0.52 |  |  |  |  |  |  |  | 
7 | CC(C)(O)c1cnn2c(-c3ccc(F)c(-c4ncncc4C#N)c3)cnc2n1 |  | 3.3 nM |  |  | 0.67 nM | 0.01 |  | 0.34 |  |  |  |  |  |  |  | 
8 | CC(C)(O)c1cnn2c(-c3ccc(F)c(-c4cccnc4)c3)cnc2n1 |  | 1.63 nM |  | 0.5 nM | 0.81 nM | 0 |  | 0.24 |  |  |  |  |  |  |  | 
9 | CC(C)(O)c1ccn2c(-c3ccc(F)c(-c4ccc(F)cn4)c3)cnc2n1 | 0.38 | 1.94 nM | 0.57 | 0.42 nM | 1.6 nM | 0.4 |  |  |  |  |  |  |  |  |  | 
10 | CC(C)(O)c1ccn2c(-c3ccc(F)c(-c4cccnc4)c3)cnc2n1 | 0.06 |  | 0.5 |  |  | 0.05 |  | 0.53 |  |  | 46% | 9.1 | 0.6 L/kg | 1 L/kg | 8.1 mL/min/kg | 1 h
11 | CC(C)(O)c1ccn2c(-c3ccc(F)c(-c4ccncc4C#N)c3)cnc2n1 | 0.3 | 0.28 nM | 0.59 | 0.14 nM | 0.6 nM |  |  |  |  |  |  |  |  |  |  | 
12 | CC(C)(O)c1ccn2c(-c3ccc(F)c(-c4ncccc4C#N)c3)cnc2n1 | 0.26 | 3.64 nM | 0.52 | 0.67 nM | 1.43 nM |  |  |  |  |  |  |  |  |  |  | 
13 | CC(C)(O)c1ccn2c(-c3ccc(F)c(-c4ncc(F)cc4F)c3)cnc2n1 | 0.18 | 3.76 nM | 0.21 | 1.13 nM | 1.79 nM |  |  |  |  |  |  |  |  |  |  | 
